Experimental data: the NIST ThermoML archive (doi:10.1016/j.tca.2017.06.023)
Numbers after ± are expanded uncertainties.

Legend:
[1] = 100 kPa, Liquid; for viscosity: Capillary tube (Ostwald / Ubbelohde) method; for speed of sound: Frequency=3 MHz, Sing-around technique in a fixed-path interferometer; for mass density: Vibrating tube method
[2] = refractive index (Na D-line) (dimensionless); settings: 100 kPa, Liquid, Standard Abbe refractometry
[3] = xn = mol fraction of the nth substance listed; settings: 100 kPa, Liquid, x2 = 0; for viscosity: Capillary tube (Ostwald / Ubbelohde) method; for speed of sound: Frequency=3 MHz, Sing-around technique in a fixed-path interferometer; for mass density: Vibrating tube method
[4] = refractive index (Na D-line) (dimensionless); xn = mol fraction of the nth substance listed; settings: 100 kPa, Liquid, Standard Abbe refractometry, x2 = 0

| Structure (SMILES) | viscosity ([1]; 283.15 K) | speed of sound ([1]; 283.15 K) | mass density ([1]; 283.15 K) | viscosity ([1]; 298.15 K) | speed of sound ([1]; 298.15 K) | mass density ([1]; 298.15 K) | viscosity ([1]; 313.15 K) | speed of sound ([1]; 313.15 K) | mass density ([1]; 313.15 K) | refractive index ([2]; 283.15 K) | refractive index ([2]; 298.15 K) | refractive index ([2]; 313.15 K) | viscosity ([3]; 283.15 K) | speed of sound ([3]; 283.15 K) | mass density ([3]; 283.15 K) | viscosity ([3]; 298.15 K) | speed of sound ([3]; 298.15 K) | mass density ([3]; 298.15 K) | viscosity ([3]; 313.15 K) | speed of sound ([3]; 313.15 K) | also measured |
| --- | --- | --- | --- | --- | --- | --- | --- | --- | --- | --- | --- | --- | --- | --- | --- | --- | --- | --- | --- | --- | --- |
| CCC(C)O (stereo not drawn) [butan-2-ol] | 5.652 ± 0.12 mPa·s | 1266 ± 1.3 m/s | 814.99 ± 0.24 kg/m3 | 3.07 ± 0.064 mPa·s | 1212.2 ± 1.3 m/s | 802.71 ± 0.24 kg/m3 | 1.796 ± 0.037 mPa·s | 1157.6 ± 1.2 m/s | 789.86 ± 0.24 kg/m3 | 1.40126 ± 0.00033 | 1.39515 ± 0.00033 | 1.38878 ± 0.00033 | – | – | – | – | – | – | – | – | – |
| CCC(C)O (stereo not drawn) [butan-2-ol] + CC(=O)N(C)C | – | – | – | – | – | – | – | – | – | – | – | – | 5.652 ± 0.12 mPa·s | 1266 ± 1.3 m/s | 814.99 ± 0.24 kg/m3 | 3.07 ± 0.064 mPa·s | 1212.2 ± 1.3 m/s | 802.71 ± 0.24 kg/m3 | 1.796 ± 0.037 mPa·s | 1157.6 ± 1.2 m/s | mass density ([3]; 313.15 K): 789.86 ± 0.24 kg/m3; refractive index ([4]; 283.15 K): 1.40126 ± 0.00033; refractive index ([4]; 298.15 K): 1.39515 ± 0.00033; refractive index ([4]; 313.15 K): 1.38878 ± 0.00033 |
| CC(C)O [propan-2-ol] | 3.306 ± 0.069 mPa·s | 1191.9 ± 1.2 m/s | 793.41 ± 0.24 kg/m3 | 2.051 ± 0.043 mPa·s | 1139.2 ± 1.2 m/s | 781.07 ± 0.24 kg/m3 | 1.334 ± 0.028 mPa·s | 1086.6 ± 1.2 m/s | 768 ± 0.24 kg/m3 | 1.38149 ± 0.00033 | 1.37505 ± 0.00033 | 1.36829 ± 0.00033 | – | – | – | – | – | – | – | – | – |
| CC(C)O [propan-2-ol] + CC(=O)N(C)C | – | – | – | – | – | – | – | – | – | – | – | – | 3.306 ± 0.069 mPa·s | 1191.9 ± 1.2 m/s | 793.41 ± 0.24 kg/m3 | 2.051 ± 0.043 mPa·s | 1139.2 ± 1.2 m/s | 781.07 ± 0.24 kg/m3 | 1.334 ± 0.028 mPa·s | 1086.6 ± 1.2 m/s | mass density ([3]; 313.15 K): 768 ± 0.24 kg/m3; refractive index ([4]; 283.15 K): 1.38149 ± 0.00033; refractive index ([4]; 298.15 K): 1.37505 ± 0.00033; refractive index ([4]; 313.15 K): 1.36829 ± 0.00033 |
